Measurements reported in PubChem BioAssay AID330 (DTP/NCI, 2004).
Values joined by “and” are separate entries in the source; they are usually repeats but may differ in a detail not shown here. Equal values may be shown once. Toxic doses and inconclusive results are not listed. The calls were made as follows: active = survival T/C of 150% or more; inactive = T/C below 125% in these data.

System: P388 leukemia ip, CD2F1 mice, survival T/C
Test: NCI In Vivo Anticancer Drug Screen. Data for tumor model P388 Leukemia (intraperitoneal) in CD2F1 (CDF1) mice
Details: endpoint: median survival time, higher = longer survival
Summary of the method: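 Mice carrying the transplanted tumor received test compound or vehicle. Survival was recorded in each group, and the value is the treated-group measurement divided by that of the vehicle-treated control group.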

[1] = dose: 50.0 mg/kg/injection, schedule: Q01DX009 (ip), vehicle: saline with Tween-80
[2] = dose: 100.0 mg/kg/injection, schedule: Q01DX001 (ip), vehicle: Klucel (hydroxypropylcellulose) (HPC)
[3] = dose: 50.0 mg/kg/injection, schedule: Q01DX005 (ip), vehicle: saline with Tween-80
[4] = dose: 100.0 mg/kg/injection, schedule: Q01DX005 (ip), vehicle: saline with Tween-80
[5] = dose: 3.12 mg/kg/injection, schedule: Q01DX009 (ip), vehicle: saline with Tween-80
[6] = dose: 6.25 mg/kg/injection, schedule: Q01DX009 (ip), vehicle: saline with Tween-80
[7] = dose: 12.5 mg/kg/injection, schedule: Q01DX009 (ip), vehicle: saline with Tween-80
[8] = dose: 50.0 mg/kg/injection, schedule: Q01DX005 (ip), vehicle: Klucel (hydroxypropylcellulose) (HPC)
[9] = dose: 100.0 mg/kg/injection, schedule: Q01DX005 (ip), vehicle: Klucel (hydroxypropylcellulose) (HPC)
[10] = dose: 60.0 mg/kg/injection, schedule: Q01DX005 (ip), vehicle: saline with Tween-80
[11] = dose: 120.0 mg/kg/injection, schedule: Q01DX005 (ip), vehicle: saline with Tween-80
[12] = dose: 240.0 mg/kg/injection, schedule: Q01DX005 (ip), vehicle: saline with Tween-80

Measured: T/C

Nc1ccc(S(=O)(=O)c2ccc(NCC(=O)O)cc2)cc1
inactive: [1] 100 % of control | dose: 50.0 mg/kg/injection, schedule: Q04DX003 (ip), vehicle: saline with Tween-80 100 % of control | dose: 100.0 mg/kg/injection, schedule: Q01DX009 (ip), vehicle: saline with Tween-80 95 % of control | dose: 100.0 mg/kg/injection, schedule: Q04DX003 (ip), vehicle: saline with Tween-80 100 % of control | dose: 200.0 mg/kg/injection, schedule: Q01DX009 (ip), vehicle: saline with Tween-80 86 % of control | dose: 200.0 mg/kg/injection, schedule: Q04DX003 (ip), vehicle: saline with Tween-80 100 % of control

CCOP(O)(=S)OCC.[Sm]
inactive: [2] 88 % of control | dose: 200.0 mg/kg/injection, schedule: Q01DX001 (ip), vehicle: Klucel (hydroxypropylcellulose) (HPC) 88 % of control | dose: 400.0 mg/kg/injection, schedule: Q01DX001 (ip), vehicle: Klucel (hydroxypropylcellulose) (HPC) 94 % of control

CNC(=O)OCc1nc(SC)n(Cc2ccccc2)c1COC(=O)NC
inactive: dose: 12.5 mg/kg/injection, schedule: Q01DX005 (ip), vehicle: saline with Tween-80 100 % of control | dose: 25.0 mg/kg/injection, schedule: Q01DX005 (ip), vehicle: saline with Tween-80 110 % of control | [3] 110 % of control and 116 % of control | [4] 106 % of control and 116 % of control

COc1ccc(CSC(=S)Nc2ccc(Cl)c(Cl)c2)cc1
inactive: dose: 12.5 mg/kg/injection, schedule: Q01DX009 (ip), vehicle: Klucel (hydroxypropylcellulose) (HPC) 111 % of control | dose: 25.0 mg/kg/injection, schedule: Q01DX009 (ip), vehicle: Klucel (hydroxypropylcellulose) (HPC) 120 % of control | dose: 50.0 mg/kg/injection, schedule: Q01DX009 (ip), vehicle: Klucel (hydroxypropylcellulose) (HPC) 120 % of control and 121 % of control | dose: 100.0 mg/kg/injection, schedule: Q01DX009 (ip), vehicle: Klucel (hydroxypropylcellulose) (HPC) 111 % of control

CCCCCCCCCCCCCCCc1cccc(O)c1C(=O)O
inactive: dose: 12.5 mg/kg/injection, schedule: Q01DX005 (ip), vehicle: distilled water + Tween-80 106 % of control | dose: 20.0 mg/kg/injection, schedule: Q01DX009 (ip), vehicle: saline with Tween-80 113 % of control | dose: 25.0 mg/kg/injection, schedule: Q01DX005 (ip), vehicle: distilled water + Tween-80 102 % of control | dose: 40.0 mg/kg/injection, schedule: Q01DX009 (ip), vehicle: saline with Tween-80 111 % of control | dose: 50.0 mg/kg/injection, schedule: Q01DX005 (ip), vehicle: distilled water + Tween-80 107 % of control | dose: 80.0 mg/kg/injection, schedule: Q01DX009 (ip), vehicle: saline with Tween-80 109 % of control | dose: 100.0 mg/kg/injection, schedule: Q01DX005 (ip), vehicle: distilled water + Tween-80 117 % of control

COC(=O)c1ccc(OP(=O)(N(C)C)N(C)C)cc1
inactive: [5] 98 % of control and 97 % of control | [6] 96 % of control | [7] 104 % of control and 96 % of control

O=C(NCCCCC(NC(=O)c1ccccc1)C(=O)O)OCc1ccccc1 (stereo unspecified)
inactive: [3] 96 % of control | [4] 100 % of control | dose: 200.0 mg/kg/injection, schedule: Q01DX005 (ip), vehicle: saline with Tween-80 92 % of control

C[C@]12CCC(=O)C=C1CC[C@@H]1[C@@H]2CC[C@@]2(C)[C@H]1CCCN2CCO
inactive: dose: 25.0 mg/kg/injection, schedule: Q01DX001 (ip), vehicle: Klucel (hydroxypropylcellulose) (HPC) 99 % of control | dose: 50.0 mg/kg/injection, schedule: Q01DX001 (ip), vehicle: Klucel (hydroxypropylcellulose) (HPC) 103 % of control | [2] 99 % of control and 97 % of control

O=C(Nc1ccccc1)/C(N=Nc1ccc([N+](=O)[O-])cc1Cl)=N/Nc1ccc([N+](=O)[O-])cc1Cl
inactive: [8] 111 % of control | [9] 109 % of control

CSc1nc(NC2OC(COC(C)=O)C(OC(C)=O)C(OC(C)=O)C2OC(C)=O)c(N=C(C)C(C)=O)c(=O)[nH]1 (stereo unspecified)
inactive: [10] 100 % of control | [11] 96 % of control | [12] 86 % of control

COc1ccc2c(c1)C1(C)CCCC(C)(COC(C)=O)C1CC2 (stereo unspecified)
inactive: dose: 7.5 mg/kg/injection, schedule: Q01DX009 (ip), vehicle: saline with Tween-80 91 % of control | dose: 15.0 mg/kg/injection, schedule: Q01DX009 (ip), vehicle: saline with Tween-80 91 % of control | dose: 30.0 mg/kg/injection, schedule: Q01DX009 (ip), vehicle: saline with Tween-80 89 % of control

O=C1C=CC(=O)C2=C1CCCC2
inactive: dose: 2.0 mg/kg/injection, schedule: Q01DX009 (ip), vehicle: saline with Tween-80 100 % of control | dose: 2.9 mg/kg/injection, schedule: Q01DX009 (ip), vehicle: saline with Tween-80 100 % of control | [5] 100 % of control | dose: 4.5 mg/kg/injection, schedule: Q01DX009 (ip), vehicle: saline with Tween-80 100 % of control | [6] 100 % of control | dose: 6.5 mg/kg/injection, schedule: Q01DX009 (ip), vehicle: saline with Tween-80 100 % of control | [7] 102 % of control

COc1ccc(S(=O)(=O)c2coc3ccc(C)cc3c2=O)cc1
inactive: [10] 100 % of control | [11] 96 % of control | [12] 95 % of control

CCCC(=O)O.CCCC(=O)O.CCCC(=O)O.CCCC(=O)O.[Rh].[Rh]
inactive: dose: 0.12 mg/kg/injection, schedule: Q01DX009 (ip), vehicle: saline + alcohol 116 % of control | dose: 0.25 mg/kg/injection, schedule: Q01DX009 (ip), vehicle: saline + alcohol 106 % of control and 122 % of control | dose: 15.63 micrograms/kg/injection, schedule: Q08HX018 (ip), vehicle: saline + alcohol 118 % of control | dose: 31.25 micrograms/kg/injection, schedule: Q01DX009 (ip), vehicle: saline + alcohol 107 % of control | dose: 31.25 micrograms/kg/injection, schedule: Q08HX018 (ip), vehicle: saline + alcohol 118 % of control | dose: 62.5 micrograms/kg/injection, schedule: Q08HX018 (ip), vehicle: saline + alcohol 101 % of control | dose: 125.0 micrograms/kg/injection, schedule: Q01DX009 (ip), vehicle: saline + alcohol 114 % of control | dose: 125.0 micrograms/kg/injection, schedule: Q08HX018 (ip), vehicle: saline + alcohol 113 % of control | dose: 250.0 micrograms/kg/injection, schedule: Q01DX009 (ip), vehicle: saline + alcohol 115 % of control | dose: 250.0 micrograms/kg/injection, schedule: Q08HX018 (ip), vehicle: saline + alcohol 114 % of control | dose: 500.0 micrograms/kg/injection, schedule: Q01DX009 (ip), vehicle: saline + alcohol 122 % of control

COc1cc(C2C3=C(CCCC3=O)Oc3cc4c(cc32)OCO4)cc(OC)c1OC (stereo unspecified)
inactive: [10] 91 % of control | [11] 90 % of control | [12] 98 % of control

Cc1ccccc1NCC#N
inactive: [7] 100 % of control | dose: 25.0 mg/kg/injection, schedule: Q01DX009 (ip), vehicle: saline with Tween-80 100 % of control | [1] 104 % of control

COC(=O)NC12CC3CC(C(C)O1)C2N(Cc1ccccc1)C3 (stereo unspecified)
inactive: dose: 25.0 mg/kg/injection, schedule: Q01DX005 (ip), vehicle: Klucel (hydroxypropylcellulose) (HPC) 100 % of control | [8] 93 % of control | [9] 94 % of control

CCOc1cc(/C=N/NC(=O)N(c2ccccc2)c2ccccc2)ccc1O
inactive: [3] 88 % of control | [4] 88 % of control

NCCOCCN
inactive: dose: 60.0 mg/kg/injection, schedule: Q01DX005 (ip), vehicle: saline 100 % of control | dose: 120.0 mg/kg/injection, schedule: Q01DX005 (ip), vehicle: saline 101 % of control | dose: 240.0 mg/kg/injection, schedule: Q01DX005 (ip), vehicle: saline 95 % of control
